Data on 28 compounds can be found in patent publication US8980879B2 (AbbVie Inc., priority 2013, dated 2015).

One assay has as its target T1, BRD4 (BDI_K57-E168) (Homo sapiens, UniProt O60885).
T1 construct: BD1: amino acids K57-E168; made in house
The experiment in a line: TR-FRET bromodomain binding assay, BRD4 first bromodomain. Conditions: His-tagged BD1, 100 nM Alexa647 probe; assay protocol D or F as given per row in c1; Ki calculated from IC50. As for the experimental part: (§1) A time-resolved fluorescence resonance energy transfer (TR-FRET) assay was used to determine the affinities of compounds of the Examples listed in Table 1 for each bromodomain of BRD4. His-tagged first (BD1: amino acids K57-E168) and second (BD2: amino acids E352-E168) bromodomains of BRD4 were expressed and purified. An Alexa647-labeled BET-inhibitor was used as the fluorescent probe in the assay.
(§2) Compound dilution series were prepared in DMSO via an approximately 3-fold serial dilution from one of the following:
(§3) Assay method D: 500 μM-8.5 nM
(§4) Assay method E: 0.47 mM to 7.8 nM
(§5) Assay method F: 250 μM-4.2 nM
(§6) Assay method G: 0.047 mM to 0.78 nM
(§7) or 5-fold serial dilution from one of the following:
(§8) Assay method A: 2.5 mM-800 nM
(§9) Assay method B: 2.5 mM-797 nM
(§10) For Assay methods A, C, D, and F: Compounds were then diluted 6:100 in assay buffer (20 mM Sodium Phosphate, pH 6.0, 50 mM NaCl, 1 mM Ethylenediaminetetraacetic acid, 0.01% Triton X-100, 1 mM DL-Dithiothreitol) to yield 3× working solutions. Six microliters (μL) of the working solution was then transferred to white, low-volume assay plates (Costar #3673). A 1.5× assay mixture containing His-tagged bromodomain, Europium-conjugated anti-His antibody (Invitrogen PV5596) and the Alexa-647-conjugated probe molecule was also prepared. Twelve μL of this solution were added to the assay plate to reach a final volume of 18 μL.
(§11) For Assay methods B, E, and G: Compound dilutions were added directly into white, low-volume assay plates (Perkin Elmer Proxiplate 384 Plus#6008280) using a Labcyte Echo in conjunction with Labcyte Access and Thermo Multidrop CombinL robotics. Compounds were then suspended in eight microliters (μL) of assay buffer (20 mM Sodium Phosphate, pH 6.0, 50 mM NaCl, 1 mM Ethylenediaminetetraacetic acid disodium salt dihydrate, 0.01% Triton X-100, 1 mM DL-Dithiothreitol) containing His-tagged bromodomain, Europium-conjugated anti-His antibody (Invitrogen PV5596) and Alexa-647-conjugated probe.
(§12) The final concentration of 1× assay mixture for assay methods A, B, C, D, E, F, and G contains 2% DMSO, 8 nM His-tagged bromodomain, 1 nM Europium-conjugated anti-His-tag antibody and 100 nM or 30 nM probe (for BDI or BDII, respectively) and compound concentration in the range of: 50 μM-16 nM for method A, 49.02 μM-15.63 nM for method B, 25 μM-423 pM for method C, 10 μM-169 pM for method D, 9.19 μM 150 pM for method E, 5 μM-85 pM for method F, and 0.92 μM-15 pM for method G.
(§13) After a one-hour equilibration at room temperature, TR-FRET ratios were determined using an Envision multilabel plate reader (Ex 340, Em 495/520).
(§14) TR-FRET data were normalized to the means of 24 no-compound controls (“high”) and 8 controls containing 1 μM un-labeled probe (“low”). Percent inhibition was plotted as a function of compound concentration and the data were fit with the 4 parameter logistic equation to obtain IC50s Inhibition constants (Ki) were calculated from the IC50s, probe Kd and probe concentration. Typical Z′ values were between 0.65 and 0.75. The minimum significant ratio was determined to evaluate assay reproducibility (Eastwood et al., (2006) J Biomol Screen, 11: 253-261). The MSR was determined to be 2.03 for BDI and 1.93 for BDII, and a moving MSR (last six run MSR overtime) for both BDI and BDII was typically <3.

For assay [1], the system named is breast cancer cell line MX-1. Nature of the assay: MX-1 cell line proliferation assay. It counts as cell-based. The settings on record: Homo sapiens, MX1; MX-1 cells, 3-day (72 h) proliferation, Cell Titer Glo; read-out: Cellular proliferation: EC50. On the procedure: MX-1 Cell Line Proliferation Assay
The impact of compounds of the Examples on cancer cell proliferation was determined using the breast cancer cell line MX-1 (ATCC) in a 3-day proliferation assay and the data are reported in Table 1. MX-1 cells were maintained in RPMI 1640 medium (Sigma) supplemented with 10% FBS at 37 C.° and an atmosphere of 5% CO2. For compound testing, MX-1 cells were plated in 96-well black bottom plates at a density of 5000 cells/well in 90 μL of culture media and incubated at 37° overnight to allow cell adhesion and spreading. Compound dilution series were prepared in DMSO via a 3-fold serial dilution from 3 mM to 0.1 μM. The DMSO dilution series were then diluted 1:100 in phosphate buffered saline, and 10 μL of the resulted solution were added to the appropriate wells of the MX-1 cell plate. The final compound concentrations in the wells were 3, 1, 0.3, 0.1, 0.03, 0.01, 0.003, 0.001, 0.0003 and 0.0001 μM.
Luminescence readings from the Cell Titer Glo assay were normalized to the DMSO treated cells and analyzed using the GraphPad Prism software with sigmoidal curve fitting to obtain EC50s. The minimum significant ratio (MSR) was determined to evaluate assay reproducibility (Eastwood et al., (2006) J Biomol Screen, 11: 253-261). The overall MSR was determined to be 2.1 and a moving MSR (last six run MSR overtime) has been <2.

Another assay addresses T2, BRD4 (BDII_E352-M457) (Homo sapiens, UniProt O60885).
T2 construct: protocol; made in house
The experiment in a line: TR-FRET bromodomain binding assay, BRD4 second bromodomain. As for the experimental part:
as §1, §2, §3, §4, §5, §6, §7, §8, §9, §10, §11, §12, §13, §14
(TR-FRET usually uses a lanthanide donor and a delayed reading to cut background.)

The term Ki denotes the equilibrium dissociation constant of an inhibitor or competing ligand from its target. Turning to `Cn1cc2c3c(c[nH]c(=O)c31)CN(c1ccc(F)cc1)c1ncc(NC(=O)Cc3ccc(Cl)cc3F)cc1-2` [Example 20], the Ki is 1.76 nM at BRD4 (BDI_K57-E168) and 4.69 nM on BRD4 (BDII_E352-M457). In assay [1], the EC50 came to 36.5 nM.
The corresponding values for `Cn1cc2c3c(c[nH]c(=O)c31)CN(c1ccc(F)cc1)c1ncc(NC(=O)Cc3ccc4c(c3)CCCO4)cc1-2` [Example 21] are 1.05 nM, 2.69 nM and 16.6 nM.
In the case of `Cn1cc(CC(=O)Nc2cnc3c(c2)-c2cn(C)c4c(=O)[nH]cc(c24)CN3c2ccc(F)cc2)cn1` [Example 22], the Ki was 1.29 nM on BRD4 (BDI_K57-E168) and 3.03 nM at BRD4 (BDII_E352-M457). The EC50 in assay [1] is 16.5 nM.
The corresponding values for `Cn1cc2c3c(c[nH]c(=O)c31)CN(c1ccc(F)cc1)c1ccc(N)cc1-2` [Example 23] are 1.38 nM, 7.54 nM and 4.79 nM.
The corresponding values for `Cn1cc2c3c(c[nH]c(=O)c31)C(c1ccccc1)Nc1ccc(CS(C)(=O)=O)cc1-2` (stereo not drawn) [Example 25] are 192 nM, 124 nM and greater than 1000 nM.
The corresponding values for `Cn1cc2c3c(c[nH]c(=O)c31)CN(c1ccc(F)cc1)c1ccc(NS(=O)(=O)c3ccccc3)cc1-2` [Example 26] are 0.27 nM, 3.12 nM and 9.48 nM.
Turning to `CC(=O)Nc1ccc(S(=O)(=O)Nc2ccc3c(c2)-c2cn(C)c4c(=O)[nH]cc(c24)CN3c2ccc(F)cc2)cc1` [Example 27], the figures for the Ki at BRD4 (BDI_K57-E168) and at BRD4 (BDII_E352-M457) were 0.2 nM and 1.73 nM, respectively. Besides, in assay [1], the EC50 was determined as 8.56 nM.
On the same counts, the results for `Cn1cc(CC(=O)Nc2ccc3c(c2)-c2cn(C)c4c(=O)[nH]cc(c24)CN3c2ccc(F)cc2)cn1` [Example 28] are 1.17 nM, 8.21 nM and 13.5 nM.
On the same counts, the results for `Cn1cc2c3c(c[nH]c(=O)c31)CN(c1ccc(F)cc1)c1ccc(NC(=O)Cc3cc(F)ccc3Cl)cc1-2` [Example 30] are 3.53 nM, 21.8 nM and 51.2 nM.
The corresponding values for `Cc1ncc(CC(=O)Nc2ccc3c(c2)-c2cn(C)c4c(=O)[nH]cc(c24)CN3c2ccc(F)cc2)s1` [Example 32] are 1.37 nM, 11.6 nM and 12.3 nM.
With `Cc1cc(CC(=O)Nc2ccc3c(c2)-c2cn(C)c4c(=O)[nH]cc(c24)CN3c2ccc(F)cc2)nn1C` [Example 33], the inhibition constant (Ki) at BRD4 (BDI_K57-E168) is 1.49 nM; at BRD4 (BDII_E352-M457) it was 6.39 nM. Besides, the EC50 in assay [1] worked out at 17.4 nM.
The corresponding values for `Cn1cc2c3c(c[nH]c(=O)c31)CN(c1ccc(F)cc1)c1ccc(NC(=O)CCCC(=O)Nc3ccccc3)cc1-2` [Example 34] are 2.2 nM, 24.9 nM and 47.9 nM.
The corresponding values for `Cc1cnc(C(=O)Nc2ccc3c(c2)-c2cn(C)c4c(=O)[nH]cc(c24)CN3c2ccc(F)cc2)cn1` [Example 35] are 2.01 nM, 18.9 nM and 26.4 nM.
Consider `CCn1ccc(CNc2ccc3c(c2)-c2cn(C)c4c(=O)[nH]cc(c24)CN3c2ccc(F)cc2)n1` [Example 37], for which the Ki on BRD4 (BDI_K57-E168) was 1.07 nM; at BRD4 (BDII_E352-M457), 7.42 nM. In assay [1], the EC50 came to 19 nM.
The corresponding values for `Cn1nccc1CNc1ccc2c(c1)-c1cn(C)c3c(=O)[nH]cc(c13)CN2c1ccc(F)cc1` [Example 38] are 1.52 nM, 9.3 nM and 9 nM.
The corresponding values for `Cn1cc2c3c(c[nH]c(=O)c31)CN(c1ccc(F)cc1)c1ccc(NCCCn3cccn3)cc1-2` [Example 39] are 1.94 nM, 12.3 nM and 23.2 nM.
With `Cc1cccc(CNc2ccc3c(c2)-c2cn(C)c4c(=O)[nH]cc(c24)CN3c2ccc(F)cc2)n1` [Example 40], the Ki was 0.86 nM on BRD4 (BDI_K57-E168) and 7.27 nM at BRD4 (BDII_E352-M457). Moreover, the EC50 in assay [1] is 25.5 nM.
For `COC(=O)CCCNc1ccc2c(c1)-c1cn(C)c3c(=O)[nH]cc(c13)CN2c1ccc(F)cc1` [Example 41], the Ki at BRD4 (BDI_K57-E168) was 1.73 nM; on BRD4 (BDII_E352-M457) it was 12.5 nM. The EC50 in assay [1] was 55.6 nM.
Turning to `Cn1cncc1CNc1ccc2c(c1)-c1cn(C)c3c(=O)[nH]cc(c13)CN2c1ccc(F)cc1` [Example 42], the results for the Ki at BRD4 (BDI_K57-E168) and on BRD4 (BDII_E352-M457) were 2.07 nM and 13.4 nM, respectively. In addition, in assay [1], the EC50 was determined as 9.83 nM.
On the same counts, the results for `Cc1cccnc1CNc1ccc2c(c1)-c1cn(C)c3c(=O)[nH]cc(c13)CN2c1ccc(F)cc1` [Example 43] are 1.25 nM, 6.49 nM and 17.3 nM.
The corresponding values for `Cn1cc2c3c(c[nH]c(=O)c31)CN(c1ccc(F)cc1)c1ccc(NC(=O)Nc3cccc(Oc4ccccc4)c3)cc1-2` [Example 44] are 53.3 nM, greater than 408 nM and greater than 1000 nM.
The corresponding values for `CN1CCN(CCC(=O)Nc2ccc3c(c2)-c2cn(C)c4c(=O)[nH]cc(c24)CN3c2ccc(F)cc2)CC1` [Example 47] are 1.14 nM, 13.3 nM and 14.3 nM.
On to `Cn1cc2c3c(c[nH]c(=O)c31)CN(c1ccc(F)cc1)c1ccc(NC(=O)CCN3CCCCC3)cc1-2` [Example 48], for which the results for the Ki on BRD4 (BDI_K57-E168) and on BRD4 (BDII_E352-M457) were 2.39 nM and 19.5 nM, respectively. For the same compound, in assay [1], the EC50 was found to be 29.5 nM.
The corresponding values for `Cn1cc2c3c(c[nH]c(=O)c31)CN(c1ccc(F)cc1)c1ccc(NC(=O)Cc3cc(F)ccc3Br)cc1-2` [Example 49] are 2.74 nM, 29.8 nM and 65.1 nM.
The corresponding values for `Cn1cc2c3c(c[nH]c(=O)c31)CN(c1ccc(F)cc1)c1ccc(NC(=O)Cc3cc(Cl)ccc3Cl)cc1-2` [Example 50] are 5.94 nM, 33.1 nM and 63.7 nM.
Take `Cn1cc2c3c(c[nH]c(=O)c31)CN(c1ccc(F)cc1)c1ccc(NC(=O)Cc3cc(F)ccc3F)cc1-2` [Example 52]: the results for the Ki on BRD4 (BDI_K57-E168) and on BRD4 (BDII_E352-M457) were 2.76 nM and 55.9 nM, respectively. In addition, the EC50 in assay [1] is 55.9 nM.
For `Cc1ccc(F)cc1CNC(=O)c1ccc2c(c1)-c1cn(C)c3c(=O)[nH]cc(c13)CN2c1ccc(F)cc1` [Example 57], the Ki was 1.72 nM on BRD4 (BDI_K57-E168) and 29 nM on BRD4 (BDII_E352-M457). Also, the EC50 in assay [1] is 54.9 nM.
The corresponding values for `Cn1cc2c3c(c[nH]c(=O)c31)CN(c1ccc(F)cc1)c1ccc(C(=O)NCc3cc(F)ccc3Br)cc1-2` [Example 58] are 1.83 nM, 12.7 nM and 63.3 nM.
